Literature values as cited in patent publication US20190160002A1, “PROCESS FOR PREPARING STERILE ARIPIPRAZOLE FORMULATION” (Mylan Laboratories Ltd., priority 2016, published 2019).

In the case of O=C1CCc2ccc(OCCCCN3CCN(c4cccc(Cl)c4Cl)CC3)cc2N1 [aripiprazole monohydrate], the “Effect of dry heat sterilization” value (dry heat sterilization) is given as “melted”, the “Effect of gamma-ray and electron beam sterilization” value (gamma-ray and electron beam) is given as “discolored and decomposed” and the “Effect of steam heat sterilization on particles” value (particles in aqueous suspension, steam heat sterilization) is given as “tend to agglomerate”.
